Experimental findings from US20260191954A1, “COMPOSITIONS AND METHODS FOR NEOADJUVANT TREATMENT IN CANCER” (INNATE PHARMA, priority 2022, published 2026) are described below.

One series relates to H1703 tumor cell line. Kind of series: ATP release from squamous NSCLC H1703 tumor cells after chemotherapy (CellTiter-Glo). The class given is cell-based. As to conditions: culture supernatant, FIG. 2. As for the experimental part:
This experiment aimed as studying ATP release from squamous NSCLC tumor cells following chemotherapy treatment. The squamous NSCLC H1703 tumor cell line was incubated separately with different chemotherapies. The measurement of ATP release was performed 24 h after Cisplatin treatment, 72 h after Carboplatin, 60 h after Oxaliplatin, 48 h after Pemetrexed, 48 h after Gemcitabine, 72 h after 5-FU, 24 h after Paclitaxel and 40 h after Docetaxel. Extracellular ATP release in the culture supernatant was measured with a luminescent-based assay (CellTiter-Glo®) and expressed in Luminescence Arbitrary Unit (AU). Means+/−SD.
Result are shown in FIG. 2, showing ATP release from H1703 tumor cell line (sqNSCLC) following the treatment with different chemotherapies, cisplatin, carboplatin, oxaliplatin, pemetrexed, gemcitabine, 5-Fu, paclitaxel and docetaxel.
In general terms: In ATP-based viability assays light output follows the ATP content of the culture.

Series [1] concerns the target T1, recombinant human CD39 protein (huCD39) (Homo sapiens, UniProt P49961).
T1 sequence (P49961 38-478 limits assumed): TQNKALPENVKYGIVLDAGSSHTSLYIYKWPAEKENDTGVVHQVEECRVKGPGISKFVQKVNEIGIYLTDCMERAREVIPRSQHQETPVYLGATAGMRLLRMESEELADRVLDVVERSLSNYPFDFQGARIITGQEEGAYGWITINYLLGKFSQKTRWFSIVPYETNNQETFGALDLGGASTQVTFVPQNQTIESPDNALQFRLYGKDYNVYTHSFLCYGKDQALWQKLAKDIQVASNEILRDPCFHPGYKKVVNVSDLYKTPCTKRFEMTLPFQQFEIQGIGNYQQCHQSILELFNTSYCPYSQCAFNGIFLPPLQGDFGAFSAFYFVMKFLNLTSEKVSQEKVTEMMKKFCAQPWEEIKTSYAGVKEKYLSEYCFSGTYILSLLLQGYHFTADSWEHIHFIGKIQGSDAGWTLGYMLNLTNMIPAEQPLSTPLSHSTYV
The series can be described thus: eATP release by H1703 (CD39-) cells incubated with recombinant huCD39, with or without IPH5201, then docetaxel. Type of series: cell-based. As to conditions: H1703 (CD39-) cells; docetaxel 0.1 μM; 40 h; FIG. 3A. As for the experimental part:
H1703 (CD39−) cells were incubated with recombinant human CD39 protein (huCD39) (400 ng/ml) to mimic soluble CD39 in tumor microenvironment with or without IPH5201 (humanized anti-CD39 antibody having the respective heavy and light chain amino acid sequences of SEQ ID NOS: 10 and 11) at 10 μg/mL and then treated with docetaxel (0.1 μM). The measure of extracellular ATP (eATP) release was performed 40 h after docetaxel treatment.
(§1) OAW42 (CD39+) cells were incubated with 10 or 50 μg/mL of IPH5201 and treated with a dose range of docetaxel. The measure of eATP release was performed 30 h after docetaxel treatment. eATP was measured in the cell culture supernatant with a luminescent-based assay (CellTiter-Glo®) and expressed in Luminescence Arbitrary Unit (AU). Means+/−SD.

For a further series, the system named is OAW42 (CD39+) cells. The series can be described thus: eATP release in OAW42 (CD39+) cells with IPH5201 and docetaxel. Type of series: cell-based. As to conditions: docetaxel dose range, 30 h, FIG. 3B. On the procedure:
as §1

The subject of another series is MC38 cancer cell line. Kind of series: MC38 tumor growth in huCD39KI mice (gemcitabine +/- anti-PD-L1 +/- molPH5201). The class given is in vivo, human CD39 knock-in (huCD39KI) mice. As to conditions: for tumor growth compared to the control: p<0.001. As for the experimental part: In vivo experiments were performed in human CD39 knock-in (huCD39KI) mice, genetically modified to express human CD39 in place of its murine counterpart mouse CD39. These mice were sub-cutaneously (s.c.) engrafted with the MC38 cancer cell line. Mice bearing established tumors were dosed with isotype control (IC) antibodies, anti-human CD39 antibody (molPH5201, described above), gemcitabine chemotherapy and anti-mouse PD-L1 antibody (an antibody that binds murine PD-L1 having an Fc domain with amino acid substitutions to eliminate binding to mouse Fcγ receptors.
Male and female huCD39KI mice were engrafted subcutaneously (s.c.) with 1×10^6 MC38 cancer cells. Treatments were initiated after mouse randomization. Mice were treated twice a week for two weeks with gemcitabine (25 mg/kg) or PBS (at day 8, 11, 15 and 18 after cell engraftment) and once a week for four weeks with either anti-human CD39 antibody (molPH5201) or the corresponding isotype control (IC) antibody (400 μg/mouse).
Randomization of mice into four groups was performed on day 7 post tumor cell engraftment, at a mean tumor volume of 72 mm^3±27 mm^3 with individual tumor volumes comprised between 37 and 130 mm^3.
(§2) Male and female huCD39KI mice were engrafted s.c. with 1×10^6 MC38. Treatments were initiated after mouse randomization. Mice were treated twice a week for two weeks with gemcitabine (25 mg/kg) or PBS, twice a week for three weeks with either anti-mouse PD-L1 antibody or the corresponding IC antibody (200 μg/mouse) and once a week for four or five weeks depending on the experiment with either anti-human CD39 antibody (molPH5201) or the corresponding IC antibody (400 μg/mouse). Mouse randomization into five groups was performed on day 7 post tumor cell engraftment at a mean tumor volume of 62 mm^3±23 mm^3 with individual tumor volumes comprised between 31 and 117 mm^3.
as §2, with “As in Experiment 1, male” for “Male”, “64” for “62”, “115” for “117”
as §2, with “As in Experiments 1 and 2, male” for “Male”, “engraftment,” for “engraftment”, “74 mm^3±21” for “62 mm^3±23”, “40” for “31”, “121” for “117”
The three experiments were pooled and results are shown in FIG. 9, showing Tumor growth of MC38 tumor in huCD39KI mice post treatment with gemcitabine+/−anti-PD-L1+/−molPH5201. MC38 tumor-bearing huCD39KI mice were randomized on day 7 and then treated as indicated with 25 mg/kg ip of gemcitabine or PBS, 200 μg ip of anti-mouse PD-L1 antibody or corresponding isotype control antibody and with 400 μg iv of molPH5201 or corresponding IC antibody. Graphs show tumor growth in each individual (n=31/group). CR: Complete Response.

Series [2] is described as follows: Phase 1 study of IPH5201 +/- durvalumab in advanced solid tumours: safety. Type of series: in vivo. As to conditions: of 19 patients given IPH5201+durvalumab (1500 mg Q3W). As for the experimental part:
A first-in-human, multicentre, non-randomised, open-label, phase 1 study was conducted in order to assess the safety, efficacy, pharmacokinetics (PK) and pharmacodynamics (PD) of IPH5201±durvalumab (Imfinzi™) in patients with advanced solid tumours. The study consisted of two consecutive dose-escalation parts: • Part 1: Ascending doses of IPH5201 (100, 300, 1000 and 3000 mg) every 3 weeks (Q3W). • Part 2: Ascending doses of IPH5201 (300, 1000 and 3000 mg) and 1500 mg durvalumab Q3W.
PD cohorts enrolled patients with advanced squamous cell lung carcinoma or advanced pancreatic ductal adenocarcinoma in the top two dose levels of Parts 1 and 2. Primary endpoints were safety and tolerability. Key secondary endpoints included preliminary antitumour activity measured by objective response and disease control per RECIST v1.1, PK and immunogenicity. Exploratory endpoints included efficacy measured by duration of response and progression-free survival (PFS) per RECIST v1.1, overall survival and assessment of biomarkers.
Key inclusion criteria were: • Adults aged ≥18 years. • Histologically or cytologically confirmed advanced solid tumours. • At least one measurable lesion per RECIST v1.1. • Refractoriness to standard therapy or disease for which no standard therapy exists. • Eastern Cooperative Oncology Group Performance Status of 0 or 1. • Archival or fresh tumour sample. • Key exclusion criteria were: • Previous treatment with any agents targeting CD73, CD39, or adenosine receptors. • Treatment with any conventional or investigational anticancer therapy within 21 days of the first planned dose. • Active or prior autoimmune or inflammatory disorders within the past 5 years. • Cardiac and vascular criteria including presence of acute coronary syndrome or thromboembolic events within 6 months prior to enrolment, congestive heart failure, serious cardiac arrhythmia requiring medication, or uncontrolled hypertension. • Untreated metastases to the central nervous system.
Overall, 57 patients received treatment (IPH5201, n=38; IPH5201+durvalumab, n=19). […] Treatment-emergent adverse events (TEAEs) occurred in 96.5% of patients; 40.4% had grade ≥3 TEAEs. […] Treatment-related adverse events (TRAEs) occurred in 66.7% of patients (37/57 (64.9%) related to IPH5201; 11/19 (57.9%) related to durvalumab). […] The most common TRAEs were infusion-related reactions (21.1%), fatigue (17.5%), nausea, arthralgia, tumour pain and pruritus (8.8% each). […] Maximum tolerated dose (MTD) was not reached.

Regarding `O=c1[nH]cc(F)c(=O)[nH]1` [5-Fu, 5-FU], the ATP release entry in the series with H1703 tumor cell line (72 h after 5-FU) is listed as “induced significant ATP release”. Take `N.N.O=C([O-])C1(C(=O)[O-])CCC1.[Pt+2]` [carboplatin]: in the series on H1703 tumor cell line (72 h after Carboplatin), the ATP release entry is “induced significant ATP release”. Turning to `N.N.[Cl][Pt][Cl]` [cisplatin], the ATP release result in the series with H1703 tumor cell line (24 h after Cisplatin treatment) is given as “induced significant ATP release”.

`CC(=O)O[C@@]12CO[C@@H]1C[C@H](O)[C@@]1(C)C(=O)[C@H](O)C3=C(C)[C@@H](OC(=O)[C@H](O)[C@@H](NC(=O)OC(C)(C)C)c4ccccc4)C[C@@](O)([C@@H](OC(=O)c4ccccc4)[C@H]21)C3(C)C` [docetaxel, reference compound]: the ATP release result in the series on H1703 tumor cell line (40 h after Docetaxel) is on record as “induced significant ATP release”. Besides, in series [1], the “extracellular ATP (eATP) release” value is recorded as “induced strong release of eATP”. Further, the eATP release entry with OAW42 (CD39+) cells is “at best a modest release of eATP”.

With `Nc1ccn([C@@H]2O[C@H](CO)[C@@H](O)C2(F)F)c(=O)n1` [gemcitabine, reference compound], the ATP release entry in the series on H1703 tumor cell line (48 h after Gemcitabine) was “induced significant ATP release”. In addition, the figures for the “tumor growth compared to the control” value in the series on MC38 cancer cell line (Experiment 1 (FIG. 6)), in the series with MC38 cancer cell line (Experiment 2 (FIG. 7)) and in the series with MC38 cancer cell line (Experiment 3 (FIG. 8)) were “significantly slowed down tumor growth”, “significantly slowed down tumor growth” and “significantly inhibited tumor growth”, respectively. The “tumor growth compared to the control group” value in the series on MC38 cancer cell line (gemcitabine +/- molPH5201 experiment (FIG. 5), gemcitabine 25 mg/kg, molPH5201 400 μg/mouse, p<0.001 where significant) was “drastically and significantly slowed down tumor growth”. Take `O=C1[O][Pt]2([NH][C@@H]3CCCC[C@H]3[NH]2)[O]C1=O` [oxaliplatin]: in the series with H1703 tumor cell line (60 h after Oxaliplatin), the ATP release entry is “induced significant ATP release”.

As to `CC(=O)O[C@H]1C(=O)[C@@]2(C)[C@H]([C@H](OC(=O)c3ccccc3)[C@]3(O)C[C@H](OC(=O)[C@H](O)[C@@H](NC(=O)c4ccccc4)c4ccccc4)C(C)=C1C3(C)C)[C@]1(OC(C)=O)CO[C@@H]1C[C@@H]2O` [paclitaxel], in the series on H1703 tumor cell line (24 h after Paclitaxel), the ATP release result is recorded as “induced significant ATP release”. As for `Nc1nc2[nH]cc(CCc3ccc(C(=O)N[C@@H](CCC(=O)O)C(=O)O)cc3)c2c(=O)[nH]1` [pemetrexed], the ATP release entry in the series with H1703 tumor cell line (48 h after Pemetrexed) was “induced significant ATP release”. On to durvalumab [reference compound], for which, in series [2], the “patients with TRAEs related to durvalumab” value was 57.9% and the “patients with TRAEs related to durvalumab, count” value was 11/19.
